The text below walks through data of patent US7420051B2, “Synthetic process for the manufacture of an ecteinaschidin compound” (Pharma Mar, S.A., priority 2000, dated 2008).

In general, IC50 refers to the concentration that inhibits the measured activity by half. Low readings indicate higher potency, high ones lower potency.

Type in all cases: cell-based
Test [1] concerns HT-29 (monolayer culture of a human colon carcinoma). Nature of the test: Cytotoxic activity screening, HT-29 cells. To be noted: Homo sapiens, HT-29, 72 h, three days of incubation, Crystal Violet, approximate IC50. The procedure:
(§1) Cell Cultures. Cells were maintained in logarithmic phase of growth in Eagle's Minimum Essential Medium, with Earle's Balanced Salts, with 2.0 mM L-glutamine, with non-essential amino acids, without sodium bicarbonate (EMEM/neaa); supplemented with 10% Fetal Calf Serum (FCS), 10^−2 M sodium bicarbonate and 0.1 g/l penicillin-G+streptomycin sulfate.
(§2) A simple screening procedure has been carried out to determine and compare the antitumour activity of these compounds, using an adapted form of the method described by Bergeron et al (1984). The tumour cell line employed have been P-388 (suspension culture of a lymphoid neoplasm from DBA/2 mouse), A-549 (monolayer culture of a human lung carcinoma), HT-29 (monolayer culture of a human colon carcinoma) and MEL-28 (monolayer culture of a human melanoma).
(§3) A-549, HT-29 and MEL-28 were seeded into 16 mm wells at 2×10^4 cells per well in 1 ml aliquots of MEM 10FCS containing the indicated concentration of drug. A separate set of cultures without drug was seeded as control growth to ensure that cells remained in exponential phase of growth. All determinations were carried out in duplicate. After three days of incubation at 37° C., 10% CO2 in a 98% humid atmosphere, the wells were stained with 0.1% Crystal Violet. An approximately IC50 was determined by comparing the growth in wells with drug to the growth in wells control.

Test [2] relates to A-549 (monolayer culture of a human lung carcinoma). Nature of the test: Cytotoxic activity screening, A-549 cells. Conditions: Homo sapiens, A549, 72 h, three days of incubation, Crystal Violet, approximate IC50. On the procedure: as §1, §2, §3
In test [3] the test system is P-388 (suspension culture of a lymphoid neoplasm from DBA/2 mouse). Nature of the test: Cytotoxic activity screening, P-388 cells. To be noted: Mus musculus, P388, 72 h, three days of incubation, approximate IC50. On the procedure:
as §1, §2
P-388 cell were seeded into 16 mm wells at 1×10^4 cells per well in 1 ml aliquots of MEM 5FCS containing the indicated concentration of drug. A separate set of cultures without drug was seeded as control growth to ensure that cells remained in exponential phase of growth. All determinations were carried out in duplicate.

For test [4], the system named is MEL-28 (monolayer culture of a human melanoma). In words: Cytotoxic activity screening, MEL-28 cells. To be noted: SK-MEL-28, 72 h, three days of incubation, Crystal Violet, approximate IC50. The procedure:
as §1, §2, §3

Another test concerns DU-145. In words: Cytotoxic activity screening, DU-145 cells. Conditions: Homo sapiens, DU-145, DU-145 cells.

As for `COCOc1c(OC)c(C)cc2c1[C@@H]1C3CC4=C(C(=O)C(OC)=C(C)C4=O)[C@H](CNC(=O)[C@H](C)NC(=O)OC(C)(C)C)N3[C@@H](C#N)[C@H](C2)N1C` (stereo partly drawn), the IC50 in test [1], in test [2], in test [3] and in test [4] was 1.44 µM in each case.

For `COCOc1c(OC)c(C)cc2c1[C@@H]1C3CC4=C(C(=O)C(O)=C(C)C4=O)[C@H](CNC(=O)[C@H](C)NC(=O)OC(C)(C)C)N3[C@@H](C#N)[C@H](C2)N1C` (stereo partly drawn), the IC50 in test [1], in test [2], in test [3] and in test [4] was over 1.5 µM throughout.

As to `COCOc1c(OC)c(C)cc2c1[C@@H]1C3Cc4c(OC(C)=O)c(C)c5c(c4[C@H](CNC(=O)[C@H](C)NC(=O)OC(C)(C)C)N3[C@@H](C#N)[C@H](C2)N1C)OCO5` (stereo partly drawn), the half-maximal inhibitory concentration (IC50) (in test [1]; in the test on DU-145; in test [2]; in test [3]; in test [4]) was 0.13 µM throughout.

For `COc1c(C)cc2c(c1O)[C@@H]1C3Cc4c(OC(C)=O)c(C)c5c(c4[C@H](CNC(=O)[C@H](C)N)N3[C@@H](C#N)[C@H](C2)N1C)OCO5` (stereo partly drawn), the IC50 in test [1] came to 0.008 µM; with DU-145, 0.016 µM; in test [2], 0.016 µM; in test [3] it was 0.008 µM; in test [4] it was 0.008 µM.

For the compound `COc1c(C)cc2c(c1O)[C@@H]1C3Cc4c(OC(C)=O)c(C)c5c(c4[C@H](CNC(=O)[C@H](C)NC(=S)Nc4ccccc4)N3[C@@H](C#N)[C@H](C2)N1C)OCO5` (stereo partly drawn), the half-maximal inhibitory concentration (IC50) (in test [1]; in the test with DU-145; in test [2]; in test [3]; in test [4]) was 0.001 µM in each case.

In the case of `COc1c(C)cc2c(c1O)[C@@H]1C3Cc4c(OC(C)=O)c(C)c5c(c4[C@H](CN)N3[C@@H](C#N)[C@H](C2)N1C)OCO5` (stereo partly drawn), the IC50 (in test [1]; in the test with DU-145; in test [2]; in test [3]; in test [4]) was 0.01 µM each time.

Take `COCOc1c(OC)c(C)cc2c1[C@@H]1C3Cc4c(O)c(C)c5c(c4[C@H](CNC(C)=O)N3[C@@H](C#N)[C@H](C2)N1C)OCO5` (stereo partly drawn): the IC50 (in test [1]; in the test on DU-145; in test [2]; in test [3]; in test [4]) was over 1.77 µM in each case.

Consider `C=CCOc1c(C)c2c(c3c1CC1[C@H]4c5c(cc(C)c(OC)c5OCOC)C[C@@H]([C@H](C#N)N1[C@H]3CNC(C)=O)N4C)OCO2` (stereo partly drawn), for which the IC50 (in test [1]; with DU-145; in test [2]; in test [3]; in test [4]) was over 1.65 µM in each case.

On to `COCOc1c(OC)c(C)cc2c1[C@@H]1C3Cc4c(OC(C)=O)c(C)c5c(c4[C@H](CNC(C)=O)N3[C@@H](C#N)[C@H](C2)N1C)OCO5` (stereo partly drawn), for which the IC50 (in test [1]; with DU-145; in test [2]; in test [3]; in test [4]) was 0.016 µM each time.

For `COc1c(C)cc2c(c1O)[C@@H]1C3Cc4c(OC(C)=O)c(C)c5c(c4[C@H](CNC(C)=O)N3[C@@H](C#N)[C@H](C2)N1C)OCO5` (stereo partly drawn), the IC50 (in test [1]; with DU-145; in test [2]; in test [3]; in test [4]) was 0.001 µM throughout.

As for `COc1c(C)cc2c(c1O)[C@@H]1C3Cc4c(OC(C)=O)c(C)c5c(c4[C@H](CNC(=O)CC(C)C)N3[C@@H](C#N)[C@H](C2)N1C)OCO5` (stereo partly drawn), the IC50 was 0.001 µM in the test with DU-145, 0.001 µM in test [2], 0.0008 µM in test [3] and 0.0008 µM in test [4].

`C/C=C(\OC(C)=O)C1=C(C2=COCO2)[C@H](CNC(=O)CCCC)N2C(C1)[C@H]1c3c(cc(C)c(OC)c3O)C[C@@H]([C@@H]2C#N)N1C` (stereo partly drawn): the concentration for half-maximal inhibition (IC50) (in test [1]; in the test on DU-145; in test [2]; in test [3]; in test [4]) was 0.007 µM in each case.

On to `COc1c(C)cc2c(c1O)[C@@H]1C3Cc4c(OC(C)=O)c(C)c5c(c4[C@H](CNC(=O)[C@@H](C)NC(=O)CC(C)C)N3[C@@H](C#N)[C@H](C2)N1C)OCO5` (stereo partly drawn), for which the IC50 (in test [1]; with DU-145; in test [2]; in test [3]; in test [4]) was 0.0001 µM throughout.

In the case of `COc1c(C)cc2c(c1O)[C@@H]1C3Cc4c(OC(C)=O)c(C)c5c(c4[C@H](CNC(=O)[C@@H](C)NC(=O)/C=C/c4cccc(C(F)(F)F)c4)N3[C@@H](C#N)[C@H](C2)N1C)OCO5` (stereo partly drawn), the IC50 (in test [1]; in the test with DU-145; in test [2]; in test [3]; in test [4]) was 0.001 µM in each case.

Turning to `COc1c(C)cc2c(c1O)[C@@H]1C3Cc4c(OC(C)=O)c(C)c5c(c4[C@H](CNC(=O)[C@H](C)NC(=O)C(F)(F)F)N3[C@@H](C#N)[C@H](C2)N1C)OCO5` (stereo partly drawn), the concentration for half-maximal inhibition (IC50) (in test [1]; in the test on DU-145; in test [2]; in test [3]; in test [4]) was 0.0001 µM throughout.

`C=CCOc1c(C)c2c(c3c1CC1[C@H]4c5c(cc(C)c(OC)c5O)C[C@@H]([C@H](C#N)N1[C@H]3CNC(=O)[C@H](C)NC(=O)C(F)(F)F)N4C)OCO2` (stereo partly drawn): the IC50 (in test [1]; with DU-145; in test [2]; in test [3]; in test [4]) was 0.001 µM each time.

Consider `COc1c(C)cc2c(c1O)[C@@H]1C3Cc4c(O)c(C)c5c(c4[C@H](CNC(=O)[C@H](C)NC(=O)C(F)(F)F)N3[C@@H](C#N)[C@H](C2)N1C)OCO5` (stereo partly drawn), for which the IC50 (in test [1]; in the test on DU-145; in test [2]; in test [3]; in test [4]) was 0.01 µM each time.

Turning to `COc1c(C)cc2c(c1O)[C@@H]1C3Cc4c(O)c(C)c5c(c4[C@H](CNC(=O)[C@H](C)N)N3[C@@H](C#N)[C@H](C2)N1C)OCO5` (stereo partly drawn), the IC50 stood at 0.18 µM in test [1]; 0.9 µM with DU-145; 0.9 µM in test [2]; 0.18 µM in test [3]; 0.8 µM in test [4].

As for `COc1c(C)cc2c(c1O)[C@@H]1C3Cc4c(O)c(C)c5c(c4[C@H](CNC(=O)[C@H](C)NC(=S)Nc4ccccc4)N3[C@@H](C#N)[C@H](C2)N1C)OCO5` (stereo partly drawn), the concentration for half-maximal inhibition (IC50) (in test [1]; in the test on DU-145; in test [2]; in test [3]; in test [4]) was 0.14 µM in each case.

For the compound `COc1c(C)cc2c(c1O)[C@@H]1C3Cc4c(OC(C)=O)c(C)c5c(c4[C@H](CNC(=O)[C@H](C)NC(=O)/C=C/c4ccccc4)N3[C@@H](C#N)[C@H](C2)N1C)OCO5` (stereo partly drawn), the IC50 in test [1] is 0.0005 µM; with DU-145 it was 0.0005 µM; in test [2], 0.001 µM; in test [3], 0.001 µM; in test [4] it was 0.001 µM.

Take `CCCC(=O)N[C@H](C)C(=O)NC[C@H]1c2c(c(OC(C)=O)c(C)c3c2OCO3)CC2[C@H]3c4c(cc(C)c(OC)c4O)C[C@@H]([C@H](C#N)N21)N3C` (stereo partly drawn): the IC50 is 0.0005 µM in test [1]; 0.001 µM in the test on DU-145; 0.001 µM in test [2]; 0.001 µM in test [3]; 0.0005 µM in test [4].

Regarding `C/C=C(\OC(C)=O)C1=C(C2=COCO2)[C@H](CNC(=O)/C=C/c2ccccc2)N2C(C1)[C@H]1c3c(cc(C)c(OC)c3O)C[C@@H]([C@@H]2C#N)N1C` (stereo partly drawn), the IC50 (in test [1]; in the test on DU-145; in test [2]; in test [3]; in test [4]) was 0.0001 µM throughout.

For the compound `COc1c(C)cc2c(c1O)[C@@H]1C3Cc4c(OC(C)=O)c(C)c5c(c4[C@H](CNC(=O)[C@H](C)NC(=O)CCCl)N3[C@@H](C#N)[C@H](C2)N1C)OCO5` (stereo partly drawn), the 50% inhibitory concentration (IC50) (in test [1]; in the test on DU-145; in test [2]; in test [3]; in test [4]) was 0.001 µM in each case.

Turning to `CCCC(=O)NC[C@H]1c2c(c(OC(C)=O)c(C)c3c2OCO3)CC2[C@H]3c4c(cc(C)c(OC)c4O)C[C@@H]([C@H](C#N)N21)N3C` (stereo partly drawn), the IC50 in test [1] is 0.0001 µM; in the test with DU-145 it was 0.0005 µM; in test [2] it was 0.0005 µM; in test [3], 0.0001 µM; in test [4], 0.0001 µM.
